These results are taken from patent publication US20070083037A1, “Monkey npy y4 receptor and method of evaluating compound” (priority 2003, published 2007).

The subject of assay [1] is rhesus monkey NPY Y4 receptor (SEQ ID NO: 3). Put plainly: Receptor binding assay using rhesus monkey Y4 receptor-expressing COS-7 cell membrane fractions (SEQ ID NO: 3), inhibition of [125I]human PP binding. The note with it: expression vector SEQ ID NO: 3; COS-7 membrane fraction; 59 pM [125I]human PP; read-out: IC50 against specific [125I]human PP binding. As for the experimental part: (§1) COS-7 cells were transfected with a pEF1/[…]B plasmid vector containing the nucleotide sequence of SEQ ID NO: 1 or 3, using LipofectAmine Plus (Invitrogen). After 48 hours, the cells were recovered, and disrupted in 10 mM MOPS buffer (pH 7.4) containing 20% sucrose, 154 mM NaCl, 10 mM KCl and 0.8 mM CaCl2, using a Polytron homogenizer (Kinematica) while cooling on ice. The obtained homogenate was centrifuged at 1,000×g, 4° C. for 15 minutes, the supernatant was centrifuged at 90,000×g for 50 minutes, and the precipitate was collected. It was then suspended in 5 mM HEPES/Tris buffer (pH 7.4) and then centrifuged again at 90,000×g for 50 minutes, after which the obtained precipitate was collected as the membrane sample. […] After rinsing with 5 mM Tris buffer (pH 7.4) containing 0.3% bovine serum albumin and drying, MicroScint0 (Perkin-Elmer) was added, and a TopCount HTS (Packard) was used to measure the residual radioactivity on the filter.

For assay [2], the system named is rhesus monkey NPY Y4 receptor (SEQ ID NO: 1). Put plainly: Receptor binding assay using rhesus monkey Y4 receptor-expressing COS-7 cell membrane fractions (SEQ ID NO: 1), inhibition of [125I]human PP binding. The note with it: expression vector SEQ ID NO: 1; COS-7 membrane fraction; 59 pM [125I]human PP; read-out: IC50 against specific [125I]human PP binding. As for the experimental part:
as §1

Assay [3] shares this test system. Put plainly: [125I]human PP binding assay using COS-7 cells expressing rhesus monkey Y4 receptor (SEQ ID NO: 1). The note with it: COS-7 cells transfected with SEQ ID NO: 1; 50 pM [125I]human PP; non-specific binding with 1 μM human PP. The protocol: (§2) COS-7 cells (American Type Culture Collection) were seeded in a 24-well culturing plate at a density of 5×10^4 cells/well, and after 24 hours, they were transfected with a pEF1/V5-HisB plasmid vector containing the nucleotide sequence of SEQ ID NO: 1 or 3 obtained in Example 1 or the same vector without the insert (mock), using Efectene (Qiagen). After culturing for 48 hours, incubation was performed at 37° C. for 30 minutes in 240 μl/well of reaction buffer (Hanks' balanced salt solution containing 20 mM HEPES and 0.2% bovine serum albumin; pH 7.4) to which 50 pM [^125I]human PP (Perkin-Elmer) had been added. After rinsing with ice-cooled reaction buffer, the cells were lysed and recovered with 2M NaOH and the radioactivity was measured with a γ-counter (Packard, Cobra).
(§3) Non-specific binding was also measured by adding 1 μM human PP to the reaction solution.

Assay [4] concerns rhesus monkey NPY Y4 receptor (SEQ ID NO: 3). Briefly: [125I]human PP binding assay using COS-7 cells expressing rhesus monkey Y4 receptor (SEQ ID NO: 3). The note with it: COS-7 cells transfected with SEQ ID NO: 3; 50 pM [125I]human PP; non-specific binding with 1 μM human PP. As for the experimental part: as §2, §3
Chain of rhesus monkey NPY Y4 receptor (SEQ ID NO: 3) (as listed by the source): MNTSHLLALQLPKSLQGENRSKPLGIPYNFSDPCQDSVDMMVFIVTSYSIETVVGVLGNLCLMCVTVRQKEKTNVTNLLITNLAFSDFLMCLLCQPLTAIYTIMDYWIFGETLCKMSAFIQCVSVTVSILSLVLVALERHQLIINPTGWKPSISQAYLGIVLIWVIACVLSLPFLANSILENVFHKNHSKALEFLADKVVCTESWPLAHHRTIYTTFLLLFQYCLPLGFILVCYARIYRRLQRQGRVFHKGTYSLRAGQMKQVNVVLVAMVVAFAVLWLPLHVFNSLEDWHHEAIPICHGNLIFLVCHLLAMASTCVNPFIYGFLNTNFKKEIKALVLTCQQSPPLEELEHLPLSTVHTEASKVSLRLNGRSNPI

Chain of rhesus monkey NPY Y4 receptor (SEQ ID NO: 1) (as listed by the source): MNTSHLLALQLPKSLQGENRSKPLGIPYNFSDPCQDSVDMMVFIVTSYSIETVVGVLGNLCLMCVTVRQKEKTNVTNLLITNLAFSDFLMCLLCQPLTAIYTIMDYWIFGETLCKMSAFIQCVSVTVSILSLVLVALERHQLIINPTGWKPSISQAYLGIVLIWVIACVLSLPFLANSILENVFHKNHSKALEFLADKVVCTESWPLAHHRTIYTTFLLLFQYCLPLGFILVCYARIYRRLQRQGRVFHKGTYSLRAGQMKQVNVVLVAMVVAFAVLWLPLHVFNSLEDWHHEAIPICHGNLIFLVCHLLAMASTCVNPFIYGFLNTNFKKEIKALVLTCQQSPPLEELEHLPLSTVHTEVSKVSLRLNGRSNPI

Regarding Neuropeptide-Y [Human NPY], the IC50 in assay [1] came to 97 nM; in assay [2] it was 100 nM.
With “[125I]human PP: 125I-labelled human PP radioligand (Perkin-Elmer)”, the Specific binding in assay [3] was determined as 1238 cpm; in assay [4], 1394 cpm.

By IC50 is commonly meant the concentration that inhibits the measured activity by half.
